{"source": "ChEMBL document CHEMBL1201862", "about": "“PubChem BioAssay data set” (2004)", "key": {"Genome polyprotein": {"target": "Genome polyprotein (dengue virus type 2, UniProt P29990)", "sequence (P29990 2492-3391 limits assumed)": "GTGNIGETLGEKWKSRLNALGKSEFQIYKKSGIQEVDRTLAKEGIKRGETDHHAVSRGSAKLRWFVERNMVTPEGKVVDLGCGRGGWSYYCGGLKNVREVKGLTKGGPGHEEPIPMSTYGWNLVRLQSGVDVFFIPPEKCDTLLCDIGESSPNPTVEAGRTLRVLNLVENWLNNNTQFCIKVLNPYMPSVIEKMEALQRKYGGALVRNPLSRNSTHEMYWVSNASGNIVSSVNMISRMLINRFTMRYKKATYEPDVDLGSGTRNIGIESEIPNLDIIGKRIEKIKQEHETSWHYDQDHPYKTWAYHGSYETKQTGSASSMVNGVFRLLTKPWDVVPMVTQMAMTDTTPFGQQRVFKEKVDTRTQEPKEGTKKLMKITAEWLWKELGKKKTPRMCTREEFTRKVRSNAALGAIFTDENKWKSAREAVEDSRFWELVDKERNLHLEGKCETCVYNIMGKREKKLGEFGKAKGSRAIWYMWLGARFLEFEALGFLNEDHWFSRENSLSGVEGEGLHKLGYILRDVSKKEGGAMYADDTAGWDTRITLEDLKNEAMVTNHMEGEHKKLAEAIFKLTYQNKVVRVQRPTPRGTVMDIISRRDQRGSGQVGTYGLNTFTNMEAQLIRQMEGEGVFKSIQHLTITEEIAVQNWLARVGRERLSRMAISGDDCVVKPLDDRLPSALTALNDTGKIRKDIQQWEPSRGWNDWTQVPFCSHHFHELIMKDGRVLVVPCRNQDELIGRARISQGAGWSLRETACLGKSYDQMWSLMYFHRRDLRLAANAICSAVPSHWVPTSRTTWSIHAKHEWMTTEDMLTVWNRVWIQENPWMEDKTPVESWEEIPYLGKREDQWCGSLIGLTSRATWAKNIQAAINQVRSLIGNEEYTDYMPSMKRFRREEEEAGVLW", "experiment": "flavivirus cap methylation enzyme inhibition – biochemical, confirmation dose response, primary screen (AID 588689)", "assay_type": "functional"}, "Vero": {"tested_on": "Vero", "experiment": "viability of Vero cells under compound – cytotoxicity control for flavivirus capping enzyme inhibitors (AID 588742)", "assay_type": "functional", "conditions": "Chlorocebus sabaeus"}, "HEK293 [1]": {"tested_on": "HEK293", "experiment": "HEK293T cell viability loss, resazurin readout – resazurin fluorescence, cytotoxicity control for NF-kB activator project, SAR follow-up (AID 493251)", "assay_type": "functional, cell-based", "conditions": "Homo sapiens"}, "HEK293 [2]": {"tested_on": "HEK293", "experiment": "SAR Analysis of small molecule inhibitors of B-cell specific antigen receptor-induced NF-kB activation in a HEK-293T cell line using a luminescence assay - Set 2. [Related pubchem assays (depositor defined):AID435022, AID435025, AID489021]", "assay_type": "functional, cell-based", "conditions": "Homo sapiens"}, "Jurkat": {"tested_on": "Jurkat", "experiment": "SAR Analysis of small molecule inhibitors of […] specific antigen receptor-induced NF-kB activation in a Jurkat cell line using a luminescence assay - Set 3. [Related pubchem assays (depositor defined):AID435022, AID435025, AID465]", "assay_type": "functional, cell-based", "conditions": "Homo sapiens"}, "[3]": {"target": "Dual specificity protein kinase CLK1 (Homo sapiens, UniProt P49759)", "sequence (P49759 whole entry)": "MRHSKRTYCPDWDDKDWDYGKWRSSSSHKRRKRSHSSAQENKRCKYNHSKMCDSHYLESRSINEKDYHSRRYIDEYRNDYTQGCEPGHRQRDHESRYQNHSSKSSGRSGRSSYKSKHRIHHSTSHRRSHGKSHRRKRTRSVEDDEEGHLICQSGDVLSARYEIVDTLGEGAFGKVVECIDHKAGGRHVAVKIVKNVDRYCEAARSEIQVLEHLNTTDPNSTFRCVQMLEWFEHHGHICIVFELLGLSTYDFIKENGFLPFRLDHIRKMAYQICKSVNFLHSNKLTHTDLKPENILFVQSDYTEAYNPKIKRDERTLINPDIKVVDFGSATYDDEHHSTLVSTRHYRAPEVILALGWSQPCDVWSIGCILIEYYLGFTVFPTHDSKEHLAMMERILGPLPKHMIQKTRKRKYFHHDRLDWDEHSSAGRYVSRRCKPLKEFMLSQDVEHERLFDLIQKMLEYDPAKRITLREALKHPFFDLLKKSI", "experiment": "inhibition of human CLK1 activity – biochemical, cherry-picked samples, selectivity assay for Dyrk1A inhibitor project, dose response (AID 588811)"}, "[4]": {"target": "Cyclin-dependent kinase 2 (Homo sapiens, UniProt P24941)", "experiment": "inhibition of human CDK2/cyclin A – biochemical, cherry-picked samples, selectivity assay for Dyrk1A inhibitor project, dose response (AID 602127)"}, "[5]": {"target": "T1, Sentrin-specific protease 8 (Homo sapiens, UniProt Q96LD8)", "T1 sequence (Q96LD8 whole entry)": "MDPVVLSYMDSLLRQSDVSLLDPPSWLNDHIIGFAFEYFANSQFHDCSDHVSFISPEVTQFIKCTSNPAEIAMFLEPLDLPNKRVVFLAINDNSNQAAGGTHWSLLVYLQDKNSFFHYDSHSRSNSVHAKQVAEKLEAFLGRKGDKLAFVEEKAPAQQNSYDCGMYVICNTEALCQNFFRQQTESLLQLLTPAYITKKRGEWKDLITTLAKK", "experiment": "inhibition of sentrin protease 8 – biochemical, luminescence, set 2, SAR follow-up (AID 588601)", "assay_type": "functional"}, "Caspase-3": {"target": "T2, Caspase-3 (Homo sapiens, UniProt P42574)", "T2 sequence (P42574 whole entry)": "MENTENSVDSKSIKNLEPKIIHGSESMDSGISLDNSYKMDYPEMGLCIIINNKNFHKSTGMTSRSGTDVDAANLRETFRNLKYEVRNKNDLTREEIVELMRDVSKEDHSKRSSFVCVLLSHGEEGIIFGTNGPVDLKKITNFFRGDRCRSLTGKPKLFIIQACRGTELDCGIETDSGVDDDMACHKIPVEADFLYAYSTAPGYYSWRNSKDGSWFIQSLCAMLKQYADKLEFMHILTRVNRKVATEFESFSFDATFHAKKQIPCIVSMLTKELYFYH", "experiment": "inhibition of recombinant caspase-3 activity – biochemical, luminescence, set 2, selectivity assay for SENP protease inhibitor project, SAR follow-up (AID 588599)", "assay_type": "functional"}, "[6]": {"target": "T3, Sentrin-specific protease 7 (Homo sapiens, UniProt Q9BQF6)", "T3 sequence (Q9BQF6 whole entry)": "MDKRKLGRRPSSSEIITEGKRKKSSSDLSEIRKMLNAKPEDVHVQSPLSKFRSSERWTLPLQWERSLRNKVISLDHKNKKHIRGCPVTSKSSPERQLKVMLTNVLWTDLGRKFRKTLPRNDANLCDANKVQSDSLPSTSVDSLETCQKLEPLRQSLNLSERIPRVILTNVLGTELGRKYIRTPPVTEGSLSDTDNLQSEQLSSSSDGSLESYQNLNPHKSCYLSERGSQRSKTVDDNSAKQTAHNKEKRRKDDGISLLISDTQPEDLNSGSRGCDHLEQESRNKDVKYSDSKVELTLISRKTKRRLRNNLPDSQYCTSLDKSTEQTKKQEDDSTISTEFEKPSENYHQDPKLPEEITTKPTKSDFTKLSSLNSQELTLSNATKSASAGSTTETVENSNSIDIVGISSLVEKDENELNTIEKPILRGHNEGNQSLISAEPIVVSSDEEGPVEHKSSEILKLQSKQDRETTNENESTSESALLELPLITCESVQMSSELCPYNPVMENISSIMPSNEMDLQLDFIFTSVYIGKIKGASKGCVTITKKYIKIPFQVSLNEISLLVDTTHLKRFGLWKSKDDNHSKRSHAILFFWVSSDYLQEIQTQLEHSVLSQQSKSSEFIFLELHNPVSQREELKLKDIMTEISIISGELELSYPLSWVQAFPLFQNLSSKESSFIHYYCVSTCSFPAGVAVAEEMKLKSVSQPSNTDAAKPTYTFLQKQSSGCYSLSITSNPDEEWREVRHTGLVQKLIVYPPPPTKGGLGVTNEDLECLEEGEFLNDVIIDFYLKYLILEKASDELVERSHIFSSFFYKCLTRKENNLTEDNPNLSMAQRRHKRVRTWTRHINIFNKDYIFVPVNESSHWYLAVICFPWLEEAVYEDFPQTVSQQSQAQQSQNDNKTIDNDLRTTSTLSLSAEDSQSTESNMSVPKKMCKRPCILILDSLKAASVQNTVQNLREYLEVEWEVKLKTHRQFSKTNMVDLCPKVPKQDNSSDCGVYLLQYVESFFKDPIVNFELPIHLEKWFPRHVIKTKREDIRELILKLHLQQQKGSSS", "experiment": "inhibition of human SENP7 cleavage activity – biochemical, luminescence, set 2, SAR follow-up (AID 588600)", "assay_type": "functional"}, "[7]": {"target": "T4, Sentrin-specific protease 6 (Homo sapiens, UniProt Q9GZR1)", "T4 sequence (Q9GZR1 whole entry)": "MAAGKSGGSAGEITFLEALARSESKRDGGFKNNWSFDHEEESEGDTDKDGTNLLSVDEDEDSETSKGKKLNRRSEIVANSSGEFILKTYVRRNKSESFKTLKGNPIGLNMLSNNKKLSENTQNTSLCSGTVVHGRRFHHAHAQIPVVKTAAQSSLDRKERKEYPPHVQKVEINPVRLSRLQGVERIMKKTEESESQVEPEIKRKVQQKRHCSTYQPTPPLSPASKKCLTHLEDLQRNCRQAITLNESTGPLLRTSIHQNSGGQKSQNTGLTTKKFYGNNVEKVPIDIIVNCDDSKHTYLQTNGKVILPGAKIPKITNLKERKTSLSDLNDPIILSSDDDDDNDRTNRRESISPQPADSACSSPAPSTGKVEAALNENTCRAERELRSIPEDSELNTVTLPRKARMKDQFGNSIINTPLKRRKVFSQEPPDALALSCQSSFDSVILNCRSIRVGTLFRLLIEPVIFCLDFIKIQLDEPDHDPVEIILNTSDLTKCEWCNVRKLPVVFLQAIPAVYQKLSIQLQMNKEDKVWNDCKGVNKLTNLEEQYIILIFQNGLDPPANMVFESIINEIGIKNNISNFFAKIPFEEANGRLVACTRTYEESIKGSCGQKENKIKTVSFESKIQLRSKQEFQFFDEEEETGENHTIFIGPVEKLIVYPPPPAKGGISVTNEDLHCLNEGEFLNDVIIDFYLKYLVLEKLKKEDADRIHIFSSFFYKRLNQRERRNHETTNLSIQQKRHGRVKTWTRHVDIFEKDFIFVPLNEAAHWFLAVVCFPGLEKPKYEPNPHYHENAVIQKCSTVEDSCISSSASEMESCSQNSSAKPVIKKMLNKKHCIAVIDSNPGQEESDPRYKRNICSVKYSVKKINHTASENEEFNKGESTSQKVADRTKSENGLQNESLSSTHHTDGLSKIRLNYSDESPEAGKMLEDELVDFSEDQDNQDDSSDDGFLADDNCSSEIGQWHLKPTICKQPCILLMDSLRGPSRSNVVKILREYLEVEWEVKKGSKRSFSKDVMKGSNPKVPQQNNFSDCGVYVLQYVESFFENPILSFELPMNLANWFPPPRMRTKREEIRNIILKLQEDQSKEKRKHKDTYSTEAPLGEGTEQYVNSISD", "experiment": "inhibition of human SENP6 catalytic domain – biochemical, luminescence, set 2, SAR follow-up (AID 588598)", "assay_type": "functional"}}, "note": "Calls of active or inactive are those of the source."}
{"smiles": "O=C1NC(=S)NC(=O)C1=Cc1c(Cl)cccc1Cl", "values": [{"measurement": "IC50", "setting": "Genome polyprotein", "value": "26.9 µM (active)"}, {"measurement": "CC50", "setting": "Vero", "value": "> 40 µM (active)"}]}
{"smiles": "CNC(=O)CCc1nc(-c2ccc(F)cc2)no1", "values": [{"measurement": "IC50", "setting": "HEK293 [1]", "value": "> 80 µM (inactive)"}, {"measurement": "IC50", "setting": "HEK293 [2]", "value": "> 80 µM (inactive)"}, {"measurement": "IC50", "setting": "Jurkat", "value": "> 80 µM (inactive)"}]}
{"smiles": "c1cncc(CNc2nccc(-c3ccc4cn[nH]c4c3)n2)c1", "values": [{"measurement": "AC50", "setting": "[3]", "value": "0.0754 µM (active)"}, {"measurement": "AC50", "setting": "[4]", "value": "13.8 µM (active)"}]}
{"smiles": "COc1cccc2sc(NC(=O)c3ccc(OCc4nccn4C)cc3)nc12", "values": [{"measurement": "IC50", "setting": "[5]", "value": "77.4 µM (active)"}, {"measurement": "IC50", "setting": "Caspase-3", "value": "89.9 µM (active)"}, {"measurement": "IC50", "setting": "[6]", "value": "> 99 µM (inactive)"}, {"measurement": "IC50", "setting": "[7]", "value": "77.2 µM (active)"}]}
